The results in this text go back to ChEMBL document CHEMBL4765296, “Purine/purine isoster based scaffolds as new derivatives of benzamide class of HDAC inhibitors” (Eur J Med Chem, 2020).

SMILES strings stand for the structures. Calls of active or inactive are those of the source. The calls are words filed in the database; no cut-off is given here.

In one assay the test system is MCF7. The assay can be described thus: Cytotoxicity in human MCF7 cells assessed as reduction in cell viability incubated for 72 hrs by MTT assay. The class given is functional, cell-based. (In general: Tetrazolium assays rely on reduction of a dye to a coloured formazan, in cell work by metabolically active cells.)
The nature of another assay: cells. As to conditions: Homo sapiens, YCC-11, 72 h.
A short description of assay [1]: Cytotoxicity against human HDACi-sensitive YCC3 cells assessed as reduction in cell growth incubated for 72 hrs by MTS assay. The class given is functional, cell-based. Conditions: YCC3/7, 72 h.
Assay [2] relates to MDA-MB-231. The assay is described as follows: Antiproliferative activity against human MDA-MB-231 cells assessed as cell growth inhibition measured after 72 hrs by MTT assay. It is filed as functional, cell-based. Conditions: MDA-MB-231, 72 h.
In the next assay the test system is MDA-MB-468. The assay can be described thus: Cytotoxicity in human MDA-MB-468 cells assessed as reduction in cell viability incubated for 72 hrs by MTT assay. The class given is functional, cell-based.
The next assay has as its system HepG2. The assay can be described thus: cells. Conditions: Homo sapiens, HepG2, 72 h.
The target of another assay is Histone deacetylase 4 (Homo sapiens, UniProt P56524). The assay can be described thus: Inhibition of human recombinant HDAC4 expressed in baculovirus using fluorogenic peptide p53 residues 379-382 (RHKK(Ac)AMC) as substrate by Fluorescence analysis.
In a further assay the target is Histone deacetylase 5 (Homo sapiens, UniProt Q9UQL6). The assay can be described thus: Inhibition of human recombinant HDAC5 expressed in baculovirus using fluorogenic peptide p53 residues 379-382 (RHKK(Ac)AMC) as substrate by Fluorescence analysis.
The next assay concerns the target T1, Histone deacetylase 7 (Homo sapiens, UniProt Q8WUI4).
T1 sequence (Q8WUI4 whole entry): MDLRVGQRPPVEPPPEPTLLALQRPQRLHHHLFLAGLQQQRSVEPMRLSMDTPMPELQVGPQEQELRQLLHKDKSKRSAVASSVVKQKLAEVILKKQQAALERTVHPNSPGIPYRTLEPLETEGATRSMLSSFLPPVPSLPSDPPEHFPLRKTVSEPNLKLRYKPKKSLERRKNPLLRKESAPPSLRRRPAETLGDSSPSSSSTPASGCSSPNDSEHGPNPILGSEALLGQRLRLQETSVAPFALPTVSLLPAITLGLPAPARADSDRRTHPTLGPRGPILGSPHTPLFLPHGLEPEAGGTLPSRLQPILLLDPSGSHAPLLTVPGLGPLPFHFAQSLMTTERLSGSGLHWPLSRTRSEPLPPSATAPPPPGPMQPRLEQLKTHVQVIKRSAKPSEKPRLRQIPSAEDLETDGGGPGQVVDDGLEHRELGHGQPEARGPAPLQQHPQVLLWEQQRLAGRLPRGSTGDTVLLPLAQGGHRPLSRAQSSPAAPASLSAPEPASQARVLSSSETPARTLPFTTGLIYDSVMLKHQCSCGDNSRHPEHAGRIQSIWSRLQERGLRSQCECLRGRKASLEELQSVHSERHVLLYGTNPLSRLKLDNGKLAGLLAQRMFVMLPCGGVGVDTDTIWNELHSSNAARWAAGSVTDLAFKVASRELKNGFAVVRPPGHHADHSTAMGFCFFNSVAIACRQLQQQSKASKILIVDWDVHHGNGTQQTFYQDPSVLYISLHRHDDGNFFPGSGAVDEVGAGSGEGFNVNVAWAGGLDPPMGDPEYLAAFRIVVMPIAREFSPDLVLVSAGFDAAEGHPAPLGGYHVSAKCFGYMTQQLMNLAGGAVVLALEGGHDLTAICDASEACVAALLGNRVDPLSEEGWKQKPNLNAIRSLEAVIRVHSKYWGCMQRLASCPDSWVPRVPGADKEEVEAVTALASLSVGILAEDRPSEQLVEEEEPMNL
The assay is described as follows: Inhibition of human recombinant HDAC7 expressed in baculovirus using fluorogenic peptide p53 residues 379-382 (RHKK(Ac)AMC) as substrate by Fluorescence analysis.

The next assay has as its target Histone deacetylase 9 (Homo sapiens, UniProt Q9UKV0). The assay can be described thus: Inhibition of human recombinant HDAC9 expressed in baculovirus using fluorogenic peptide p53 residues 379-382 (RHKK(Ac)AMC) as substrate by Fluorescence analysis.
For assay [3], the system named is MDA-MB-231. The assay can be described thus: Induction of cell cycle arrest in human MDA-MB-231 cells assessed as reduction in population between G1 to G2/M phases at 4 uM for 24 hrs by PI staining based flow cytometry analysis. The class given is functional. Background: Flow cytometry measures light scatter and fluorescence of single cells or particles in a stream.

Assay [4] relates to MDA-MB-231. The assay is described as follows: Induction of cell cycle arrest in human MDA-MB-231 cells assessed as reduction in population at S phase at 4 uM for 24 hrs by PI staining based flow cytometry analysis. The class given is functional.
For assay [5], the system named is MDA-MB-231. The assay is described as follows: Induction of cell cycle arrest in human MDA-MB-231 cells assessed as accumulation of cells at subG1 phase at 16 uM for 48 hrs by PI staining based flow cytometry analysis. The class given is functional.
The subject of assay [6] is MDA-MB-231. The assay can be described thus: Induction of cell cycle arrest in human MDA-MB-231 cells assessed as accumulation of cells at G1 phase at 4 uM for 24 hrs in presence of nocodazole by PI staining based flow cytometry analysis. The class given is functional.
Assay [7] relates to MDA-MB-231. The assay can be described thus: Induction of apoptosis in human MDA-MB-231 cells assessed as increase in cleaved caspase-3 level incubated for 24 hrs by Western blot analysis. The class given is functional, cell-based. A general note: A western blot detects proteins with antibodies after separation by electrophoresis.
Assay [8] has as its system MDA-MB-231. The assay can be described thus: Induction of apoptosis in human MDA-MB-231 cells assessed as increase in cleaved PARP-1 level incubated for 24 hrs by Western blot analysis. The class given is functional, cell-based.
Assay [9] concerns MDA-MB-231. The assay is described as follows: Induction of apoptosis in human MDA-MB-231 cells assessed as increase in cleaved caspase-8 level incubated for 24 hrs by Western blot analysis. The class given is functional, cell-based.

Chain of Histone deacetylase 4 (P56524 whole entry, the tested form may be a part): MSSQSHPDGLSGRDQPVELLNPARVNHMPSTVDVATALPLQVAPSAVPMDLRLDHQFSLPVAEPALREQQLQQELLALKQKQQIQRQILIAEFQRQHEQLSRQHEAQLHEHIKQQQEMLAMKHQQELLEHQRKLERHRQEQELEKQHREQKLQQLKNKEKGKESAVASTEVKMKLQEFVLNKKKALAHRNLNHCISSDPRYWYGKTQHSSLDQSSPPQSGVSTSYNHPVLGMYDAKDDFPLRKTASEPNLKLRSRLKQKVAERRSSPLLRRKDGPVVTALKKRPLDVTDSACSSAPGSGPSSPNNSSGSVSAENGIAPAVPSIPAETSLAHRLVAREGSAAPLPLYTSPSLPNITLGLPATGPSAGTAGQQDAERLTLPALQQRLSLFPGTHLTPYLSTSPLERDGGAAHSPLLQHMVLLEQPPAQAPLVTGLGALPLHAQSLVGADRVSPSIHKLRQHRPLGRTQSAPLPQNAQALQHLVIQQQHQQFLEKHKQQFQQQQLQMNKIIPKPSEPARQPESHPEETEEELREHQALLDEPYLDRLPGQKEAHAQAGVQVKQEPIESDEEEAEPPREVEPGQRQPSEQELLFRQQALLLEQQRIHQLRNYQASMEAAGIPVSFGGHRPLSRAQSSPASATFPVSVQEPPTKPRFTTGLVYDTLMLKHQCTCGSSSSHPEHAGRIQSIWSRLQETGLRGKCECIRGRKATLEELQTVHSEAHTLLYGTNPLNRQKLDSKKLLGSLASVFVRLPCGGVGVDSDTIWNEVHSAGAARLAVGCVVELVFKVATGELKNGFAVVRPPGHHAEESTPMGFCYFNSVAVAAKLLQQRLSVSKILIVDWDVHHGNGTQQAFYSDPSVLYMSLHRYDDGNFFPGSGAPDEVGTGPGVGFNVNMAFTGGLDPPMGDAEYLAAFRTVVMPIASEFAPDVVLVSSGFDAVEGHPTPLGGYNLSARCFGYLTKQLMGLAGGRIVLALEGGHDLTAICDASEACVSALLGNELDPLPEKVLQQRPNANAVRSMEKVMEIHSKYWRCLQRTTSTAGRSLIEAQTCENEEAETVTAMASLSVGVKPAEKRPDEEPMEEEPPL
Chain of Histone deacetylase 5 (Q9UQL6 whole entry, the tested form may be a part): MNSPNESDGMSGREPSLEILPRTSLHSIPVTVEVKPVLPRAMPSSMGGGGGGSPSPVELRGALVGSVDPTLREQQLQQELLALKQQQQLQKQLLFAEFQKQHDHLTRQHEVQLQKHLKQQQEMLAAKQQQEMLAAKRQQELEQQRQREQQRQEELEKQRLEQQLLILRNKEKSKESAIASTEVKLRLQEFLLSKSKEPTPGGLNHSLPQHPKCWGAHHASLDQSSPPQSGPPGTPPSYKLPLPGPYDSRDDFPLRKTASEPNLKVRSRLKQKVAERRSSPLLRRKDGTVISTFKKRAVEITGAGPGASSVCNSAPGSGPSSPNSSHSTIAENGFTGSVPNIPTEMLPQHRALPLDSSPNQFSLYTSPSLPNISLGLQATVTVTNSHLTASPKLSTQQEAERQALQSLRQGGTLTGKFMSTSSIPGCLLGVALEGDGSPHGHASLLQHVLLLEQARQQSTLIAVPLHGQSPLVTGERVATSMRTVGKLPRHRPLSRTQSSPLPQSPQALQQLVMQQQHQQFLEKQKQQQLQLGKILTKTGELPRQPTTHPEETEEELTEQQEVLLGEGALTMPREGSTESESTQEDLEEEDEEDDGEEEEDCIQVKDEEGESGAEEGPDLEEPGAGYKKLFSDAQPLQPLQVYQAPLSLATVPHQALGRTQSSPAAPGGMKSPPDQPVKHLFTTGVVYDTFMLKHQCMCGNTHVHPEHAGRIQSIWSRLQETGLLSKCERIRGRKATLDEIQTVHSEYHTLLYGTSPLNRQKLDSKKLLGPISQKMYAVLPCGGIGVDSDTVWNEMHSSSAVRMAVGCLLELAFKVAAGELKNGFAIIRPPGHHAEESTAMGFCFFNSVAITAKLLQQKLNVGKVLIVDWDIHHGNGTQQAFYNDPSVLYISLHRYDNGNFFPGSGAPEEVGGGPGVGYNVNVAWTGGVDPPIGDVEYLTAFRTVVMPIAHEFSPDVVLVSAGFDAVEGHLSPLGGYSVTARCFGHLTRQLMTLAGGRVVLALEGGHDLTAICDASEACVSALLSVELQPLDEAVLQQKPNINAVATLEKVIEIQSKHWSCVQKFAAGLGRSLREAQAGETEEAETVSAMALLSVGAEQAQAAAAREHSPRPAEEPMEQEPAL
Chain of Histone deacetylase 9 (Q9UKV0 whole entry, the tested form may be a part): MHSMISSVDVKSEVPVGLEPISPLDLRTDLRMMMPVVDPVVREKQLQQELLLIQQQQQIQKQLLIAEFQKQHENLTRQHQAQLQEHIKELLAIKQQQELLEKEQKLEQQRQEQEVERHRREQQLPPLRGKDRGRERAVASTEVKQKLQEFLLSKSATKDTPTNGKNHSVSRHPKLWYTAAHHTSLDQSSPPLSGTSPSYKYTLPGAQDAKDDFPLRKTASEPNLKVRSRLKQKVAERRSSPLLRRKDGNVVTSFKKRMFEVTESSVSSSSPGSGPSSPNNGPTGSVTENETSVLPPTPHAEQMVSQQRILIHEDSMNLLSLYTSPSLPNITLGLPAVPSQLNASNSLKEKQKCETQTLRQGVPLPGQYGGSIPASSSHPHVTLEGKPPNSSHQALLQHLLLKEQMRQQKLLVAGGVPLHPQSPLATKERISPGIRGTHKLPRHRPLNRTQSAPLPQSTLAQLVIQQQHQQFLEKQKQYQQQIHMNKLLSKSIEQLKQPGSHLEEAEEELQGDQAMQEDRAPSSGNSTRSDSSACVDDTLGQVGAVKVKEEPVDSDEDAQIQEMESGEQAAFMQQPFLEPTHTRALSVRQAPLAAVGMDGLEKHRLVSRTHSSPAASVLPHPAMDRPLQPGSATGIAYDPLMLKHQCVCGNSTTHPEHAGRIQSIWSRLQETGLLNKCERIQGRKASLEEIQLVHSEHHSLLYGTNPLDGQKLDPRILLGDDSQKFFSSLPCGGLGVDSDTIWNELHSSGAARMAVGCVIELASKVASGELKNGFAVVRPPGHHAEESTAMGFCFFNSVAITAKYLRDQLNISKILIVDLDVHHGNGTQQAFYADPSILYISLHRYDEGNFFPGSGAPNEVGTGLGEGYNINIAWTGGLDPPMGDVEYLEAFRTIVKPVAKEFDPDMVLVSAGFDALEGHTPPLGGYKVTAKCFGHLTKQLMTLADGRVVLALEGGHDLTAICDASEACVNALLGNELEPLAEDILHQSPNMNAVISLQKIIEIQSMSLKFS
Description for HepG2: Antiproliferative activity against human HepG2 cells assessed as cell growth inhibition measured after 72 hrs by MTT assay

By IC50 is commonly meant the concentration at which inhibition is half-maximal. In the case of `Nc1ccc(F)cc1NC(=O)c1ccc(CNC(=O)/C=C/c2cccnc2)cc1`, the result in the assay with MCF7 and in the assay with MDA-MB-468 was Active. Further, the half-maximal inhibitory concentration (IC50) was 17.1 µM in the assay “cells”, 20.4 µM in assay [1], 3.6 µM in the assay on MDA-MB-231 [2] and more than 8 µM in the assay with HepG2.

As for `Nc1nc(Nc2ccc(F)c(Cl)c2)c2ncn(Cc3ccc(C(=O)Nc4ccccc4N)cc3)c2n1`, the IC50 at Histone deacetylase 4, on Histone deacetylase 5, on Histone deacetylase 7 and at Histone deacetylase 9 was more than 10 µM throughout.

As for `Nc1ccccc1NC(=O)c1ccc(CNC(=O)OCc2cccnc2)cc1` [ENTINOSTAT], the result with MDA-MB-231 [3], with MCF7, with MDA-MB-231 [4], in the assay on MDA-MB-231 [5], in the assay with MDA-MB-231 [6] and with MDA-MB-231 [7] was Active. The result in the assay on MDA-MB-231 [8], with MDA-MB-231 [9] and in the assay with MDA-MB-468 was Active. For the same compound, the figures for the IC50 (in [1]; with HepG2) were 13 µM and 4.54 µM, respectively.
